Measurements: patent US5654427A, “Indolocarbazole derivatives to treat a pathological condition of the prostate” (Kyowa Hakko Kogyo Co., Ltd., priority 1995, dated 1997)

Columns and labels:
Du-Pro1 = experiment: growth inhibition of Du-Pro1 prostate cancer cells (calcein fluorescence); type: cell-based; conditions: Homo sapiens, 72 h; 3 days incubation; read-out: Du-Pro1 IC50
Method: (§1) Throughout the experiment the Tsu-Pr1 and Du-Pro1 cells were maintained in RPMI 1640 medium (GIBCO) containing 10% fetal bovine serum (Hyclone), 2 mM glutamine, 100 U/ml penicillin, and 100 μg/ml streptomycin. The PC-3 cells were maintained in Ham's F12K medium (Irvine Scientific) containing 10% fetal bovine serum (Hyclone), 2 mM glutamine, 100 U/ml penicillin, and 100 μg/ml streptomycin. All cell lines were maintained at 37° C. in a humidified atmosphere containing 5% CO2. The DU-145 cells were maintained in minimal essential medium (Gibco), containing 10% fetal bovine serum (Hyclone), 2 mM glutamine, and no antibiotics.
(§2) Tests for growth inhibition by the candidate compounds were conducted by the following procedure. In each well of a 96-well plate (Falcon) were placed 2,500 cells in 0.1 ml of medium. The cultures were incubated overnight after which a 0.1 ml aliquot of culture medium was added to each well. […] Other control wells received medium without any K-252a derivative compounds. Incubation was continued for three days. On day three the number of cells in each well was measured using a calcein fluorescence assay (Bozyczko-Coyne et al. J. Neurosci. Meth. 50, 205-216 (1993)).
(§3) Calcein AM (Molecular Probes, Eugene, Oreg.), an analog of the viable dye fluorescein diacetate, is taken up by cells and cleaved intracellularly to fluorescent salts that are retained by intact membranes of viable cells. This method thus provides a reliable and quantitative measurement of cell survival. Calcein AM was diluted 2× in Dulbeccos phosphate buffered saline (D-PBS) to 2× the final assay concentration (6 μM) and 100 μl was added to culture wells containing 100 μl of medium. The plates were then incubated for 1 hour at 37° C. Cells were then washed 4 times with D-PBS to remove excess calcein not taken up by cells. The plate was read using a Millipore plate reading fluorimeter (Cytofluor 2350) at emission=485 nm and excitation=538 nm. After subtraction of blank values (wells containing medium but no cells), relative fluorescent values reflect a quantitative measurement of cell survival.
(§4) The number of cells in the wells containing functional derivatives was compared to the number of cells in the control wells. The concentration which inhibited cell growth by 50% was calculated and is referred to as the "IC50 ".

[1] = system: Dunning R-3327 AT-2.1 prostate tumor; experiment: inhibition of growth of Dunning R-3327 AT-2.1 prostate tumor in adult male Copenhagen rats; type: in vivo, rat; conditions: 10 mg/kg/day s.c.
Text: The AT-2 tumor is a highly anaplastic cell line derived from the original slow-growing androgen-dependent Dunning R-3327 H rat prostate tumor (Issacs et al., Prostate 9:261-281, 1986). The AT-2 tumor model has been used to characterize other potential anti-prostatic cancer agents including linomide (Ichikawa et al., Cancer Research 52:3022-3028, 1992) and suramin (Morton et al., Prostate 17:327-336, 1990) which is undergoing evaluation in clinical trials for androgen-independentprostate cancer (Eisenberger et al., J. Natl. Can. Inst. 85: 611-621, 1993).
Experimental Protocol: Twenty-four inbred male Copenhagen rats were inoculated subcutaneously in the flank with 1×10^6 viable AT-2.1 tumor cells. All animals were allowed to develop tumors of approximately 2.7 cm^3 in size (approximately 14 days) before being randomized into three groups of 8 animals each. Group 1 received daily subcutaneous injections of vehicle alone (1 ml/kg body weight). […] All animals had their tumor sizes evaluated for a period of 16 days. Tumor volume was calculated using the formula (1×w^2)×0.5.

prostate glands = experiment: inhibition of prostate growth in sexually immature mice (weight of prostate glands); type: in vivo; conditions: for Ventral Prostate weight / Dorsal Prostate weight / Coagulat-ing Glands weight / Seminal Vesicles weight: Table 6; for Ventral Prostate weight: TEPBS 14.0 ± 0.8; for Dorsal Prostate weight: TEPBS 14.6 ± 1.4; for Coagulat-ing Glands weight: TEPBS 29.6 ± 2.0; for Seminal Vesicles weight: TEPBS 71.4 ± 2.4
Text: (§5) The following animal model can be used to test the efficacy of a functional derivative for treatment of a proliferative prostate condition. Sexually immature male mice of 15-20 g each (Charles River Laboratories, Raleigh, N.C.) were used in the following in vivo study. The mice were allowed at least 3 days after purchase to acclimate before being used in any experiments.
(§6) Each test group contained 12 mice. […] At the end of the 21 day dosing period the mice were sacrificed and whole body blood, dorsal prostate, ventral prostate, coagulating glands, seminal vesicles, heart, liver, stomach, lung, kidneys and testes were collected separately and weighed.

trkA = target: T1, trkA (Rattus norvegicus, UniProt P35739); experiment: inhibition of NGF-stimulated trk autophosphorylation (tyrosine phosphorylation) in PC12 cells, anti-phosphotyrosine Western blot; type: cell-based; conditions: 100 nM compound, NGF 50 ng/ml; also: key: +: Inhibited phosphorylation; -: Did not inhibit phosphorylation
T1 construct: are rat pheochromocytoma cells that bear trkA; host or cells: PC12 rat pheochromocytoma cells
T1 sequence (P35739 33-799): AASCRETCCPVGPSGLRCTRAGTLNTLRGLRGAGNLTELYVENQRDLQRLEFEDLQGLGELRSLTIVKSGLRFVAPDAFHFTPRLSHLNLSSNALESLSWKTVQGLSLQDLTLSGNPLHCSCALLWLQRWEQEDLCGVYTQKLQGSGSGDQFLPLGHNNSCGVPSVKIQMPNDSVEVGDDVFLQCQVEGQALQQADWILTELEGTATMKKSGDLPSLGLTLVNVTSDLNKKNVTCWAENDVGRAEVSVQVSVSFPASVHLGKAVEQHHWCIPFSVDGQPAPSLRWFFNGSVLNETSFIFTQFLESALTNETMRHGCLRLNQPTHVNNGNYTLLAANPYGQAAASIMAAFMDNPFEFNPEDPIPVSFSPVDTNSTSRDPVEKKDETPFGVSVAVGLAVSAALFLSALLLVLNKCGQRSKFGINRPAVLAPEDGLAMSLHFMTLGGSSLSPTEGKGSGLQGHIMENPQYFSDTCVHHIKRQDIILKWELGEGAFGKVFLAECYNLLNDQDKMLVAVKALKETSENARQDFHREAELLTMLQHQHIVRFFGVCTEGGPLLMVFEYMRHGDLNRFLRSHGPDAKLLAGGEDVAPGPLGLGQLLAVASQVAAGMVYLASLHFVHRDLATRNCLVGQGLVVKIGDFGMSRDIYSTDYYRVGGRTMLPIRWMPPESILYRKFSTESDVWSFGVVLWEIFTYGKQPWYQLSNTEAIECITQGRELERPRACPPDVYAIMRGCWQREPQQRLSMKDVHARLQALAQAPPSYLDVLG

Tsu-Pr1 = experiment: growth inhibition of Tsu-Pr1 prostate cancer cells (calcein fluorescence); type: cell-based; conditions: Homo sapiens, TSU-Pr1, 72 h; 3 days incubation; read-out: Tsu-Pr1 IC50
Method: as §1, §2, §3, §4

[2] = body weight and weight of peripheral organs in sexually immature mice; conditions: for Body Weight: Table 6, TEPBS 32.0 ± 0.6; for Heart weight / Testes weight / Stomach weight / Lung weight / Kidney weight / Liver weight: Table 7; for Heart weight: TEPBS 170 ± 10; for Testes weight: TEPBS 206 ± 8; for Stomach weight: TEPBS 272 ± 14; for Lung weight: TEPBS 280 ± 15; for Kidney weight: TEPBS 589 ± 34; for Liver weight: TEPBS 2004 ± 69
Text: as §5, §6

SMILES: COC1(CO)CC2OC1(C)n1c3ccccc3c3c4c(c5c6ccccc6n2c5c31)C(=O)NC4 (stereo not drawn) [Compound I-19]
- IC50 (Du-Pro1): 270 nM
- inhibiting growth of AT-2.1 tumors ([1]; approximately): 50-60%
- Tumor volume Day 0 ([1]; vehicle 2.73 ± 0.50): 2.62 ± 0.53 cm^3
- Tumor volume Day 3 ([1]; vehicle 6.66 ± 1.48): 5.52 ± 1.10 cm^3
- Tumor volume Day 8 ([1]; vehicle 21.0 ± 3.0): 11.3 ± 1.8 cm^3
- Tumor volume Day 13 ([1]; vehicle 37.3 ± 4.0): 22.4 ± 2.7 cm^3
- Tumor volume Day 16 ([1]; vehicle 58.7 ± 5.0): 28.4 ± 5.1 cm^3
- weights of ventral prostate, dorsal prostate, seminal vesicles, and coagulating glands, in words (prostate glands; 1 mg/kg): significantly reduced the weights of ventral prostate, dorsal prostate, seminal vesicles, and coagulating glands
- weights of ventral prostate, dorsal prostate, seminal vesicles, and coagulating glands, in words (prostate glands; 10 mg/kg): significantly reduced the weights of ventral prostate, dorsal prostate, seminal vesicles, and coagulating glands
- Ventral Prostate weight (prostate glands; 1 mg/kg): 11.0 ± 0.9 mg
- Dorsal Prostate weight (prostate glands; 1 mg/kg): 10.4 ± 0.9 mg
- Coagulat-ing Glands weight (prostate glands; 1 mg/kg): 24.6 ± 1.4 mg
- Seminal Vesicles weight (prostate glands; 1 mg/kg): 60.0 ± 2.2 mg
- Ventral Prostate weight (prostate glands; 10 mg/kg): 10.5 ± 0.6 mg
- Dorsal Prostate weight (prostate glands; 10 mg/kg): 7.2 ± 0.8 mg
- Coagulat-ing Glands weight (prostate glands; 10 mg/kg): 23.6 ± 0.8 mg
- Seminal Vesicles weight (prostate glands; 10 mg/kg): 52.0 ± 2.0 mg
- trk 100 nM (inhibition of phosphorylation) (trkA): +
- IC50 (Tsu-Pr1): 70 nM
- Body Weight ([2]; 1 mg/kg): 31.9 ± 0.8 g
- Body Weight ([2]; 10 mg/kg): 31.2 ± 0.5 g
- Heart weight ([2]; 1 mg/kg): 160 ± 20 mg
- Testes weight ([2]; 1 mg/kg): 205 ± 7 mg
- Stomach weight ([2]; 1 mg/kg): 252 ± 12 mg
- Lung weight ([2]; 1 mg/kg): 323 ± 16 mg
- Kidney weight ([2]; 1 mg/kg): 467 ± 18 mg
- Liver weight ([2]; 1 mg/kg): 1968 ± 58 mg
- Heart weight ([2]; 10 mg/kg): 166 ± 8 mg
- Testes weight ([2]; 10 mg/kg): 208 ± 8 mg
- Stomach weight ([2]; 10 mg/kg): 242 ± 11 mg
- Lung weight ([2]; 10 mg/kg): 276 ± 18 mg
- Kidney weight ([2]; 10 mg/kg): 563 ± 17 mg
- Liver weight ([2]; 10 mg/kg): 1933 ± 70 mg
